Measurements as given in PMC9500407, “Quantifying the transport of biologics across intestinal barrier models in real-time by fluorescent imaging” (Frontiers in Bioengineering and Biotechnology, 2022).
Read-outs that look alike come from different tables or passages of the source.

Assays:
[1] = test system: Caco-2 monoculture tubules (chip); assay: In vitro drug absorption study, OrganoPlate chip monoculture tubules, Papp by LC-MS; details: OrganoPlate Caco-2 monoculture tubules, day 4, A-B, apical pH 6.5 / basolateral pH 7.4, 10 µM drug in 0.1% DMSO, 2 h, 37°C, constant flow, mean ± SEM, at least three biological replicates
[2] = test system: Caco-2:HT29-MTX E12 coculture tubules (chip); assay: In vitro drug absorption study, OrganoPlate chip coculture tubules, Papp by LC-MS; details: OrganoPlate Caco-2:HT29-MTX E12 6:1 coculture tubules, day 4, A-B, apical pH 6.5 / basolateral pH 7.4, 10 µM drug in 0.1% DMSO, 2 h, 37°C, constant flow, mean ± SEM, at least three biological replicates
[3] = test system: Caco-2:HT29-MTX E12 coculture tubules (chip); assay: Lucifer Yellow leakage after drug exposure, chip coculture; details: 100 µM LY co-applied, after 2 h of exposure to 10 µM drug
[4] = cited from earlier work
Excerpt: page 17: Supplementary Table 5. Direct statistical comparison of drug transport in Transwells, mono-and coculture tubules of 12 model drugs using an unpaired t-test.

[5] = cited from earlier work; remark: listed apart in the source
Excerpt: page 15: Supplementary Table 4. Comparison of apparent permeability in chips using mono-and coculture tubules and Transwell system of 12 model drugs.

[6] = test system: Caco-2 monolayers (Transwell); assay: In vitro drug absorption study, Transwell Caco-2 monolayer, Papp by LC-MS; details: Caco-2 Transwell, 19-21 days culture, apical pH 6.5 / basolateral pH 7.4 (TB, 10 mM HANKS/HBSS), 10 µM drug in 0.1% DMSO, 2 h, 37°C, static, mean ± SEM, at least three biological replicates
[7] = test system: Caco-2 monoculture tubules (chip); assay: Lucifer Yellow leakage after drug exposure, chip monoculture; details: 100 µM LY co-applied, after 2 h of exposure to 10 µM drug
[8] = test system: Caco-2 monolayers (Transwell); assay: Lucifer Yellow leakage after drug exposure, Transwell; details: 100 µM LY co-applied, after 2 h of exposure to 10 µM drug, Caco-2 Transwell
[9] = test system: Caco-2:HT29-MTX E12 coculture tubules; assay: Image based analysis of SNAC induced semaglutide transport; format: in vitro ADME, human
Excerpt: semaglutide (purple) and FITC-dextran (green). Scale bar is 500 µm. Data represent the mean
of at least two biological replicates per condition.

[10] = human, ref Takenaka et al., 2016
[11] = known route of the drug, no reference given

Row | Compound | Chip Caco-2 Papp (apparent permeability coefficient from A B) [1] | Chip Caco-2:HT29-MTX E12 Papp (apparent permeability coefficient from A B) [2] | Lucifer Yellow leakage (%) Chip Caco-2:HT29-MTX E12 [3] [%] | Transport route [4] | FA in human % (fraction absorbed in human) ([5]; in vivo) [%] | TW Caco-2 Papp (apparent permeability coefficient from A B) [6] | Lucifer Yellow leakage (%) Chip Caco-2 [7] [%] | Lucifer Yellow leakage (%) Transwell [8] [%] | FA in human % (fraction absorbed in human) [5, 10] [%] | Chip Caco-2:HT29-MTX E12 Papp (apparent permeability coefficient from A B) ([2]; listed as Erythromycin) [cm/s] | FA in human % (fraction absorbed in human) ([5]; human, ref Youhanna and Lauschke, 2021) [%] | Transport route [4, 11] | Effect on cell layer (micrographs) ([9]; 40 mM SNAC) | Effect on cell layer ([9]; SNAC 20 mM or 40 mM with semaglutide-Cy3 5 µM, approx. 4 h, bright field and dextran)
1 | NC(=O)N1c2ccccc2C=Cc2ccccc21 [Carbamazepine] | 0.00021399 cm/s | 140.04 ± 6.25 × 10-6 cm/sec | 0.01 | Transcellular | 100 | 204.43± 9.20 × 10-6 cm/sec | 0.02 | 0.02 |  |  |  |  |  | 
2 | CN/C(=N/CCSCc1nc[nH]c1C)NC#N [Cimetidine] | 9.79± 3.41 × 10^-6 cm/sec | 11.87 ± 3.41 × 10^-6 cm/sec | 0.02 | Paracellular |  | 5.08± 1.39 × 10^-6 cm/sec | 0.03 | 0.03 | 62 |  |  |  |  | 
3 | CC[C@H]1OC(=O)[C@H](C)[C@@H](O[C@H]2C[C@@](C)(OC)[C@@H](O)[C@H](C)O2)[C@H](C)[C@@H](O[C@@H]2O[C@H](C)C[C@H](N(C)C)[C@H]2O)[C@](C)(O)C[C@@H](C)C(=O)[C@H](C)[C@@H](O)[C@]1(C)O [Erythromicin] | 1.33e-06 cm/s | 0.99 ± 0.32 × 10^-6 cm/sec | 0.01 |  |  | 1.2e-06 cm/s | 0.04 | 0.03 |  | 9.9e-07 | 35 |  |  | 
4 | CN(C)C(=O)C(CCN1CCC(O)(c2ccc(Cl)cc2)CC1)(c1ccccc1)c1ccccc1 [Loperamide] | 11.03± 1.62 × 10^-6 cm/sec | 2.75 ± 1.13 × 10^-6 cm/sec | 0.02 |  |  | 58.60± 8.62 × 10^-6 cm/sec | 0.68 | 0.02 |  |  |  |  |  | 
5 | COCCc1ccc(OCC(O)CNC(C)C)cc1 (centres unmarked) [Metoprolol] | 17.67± 4.98 × 10-6 cm/sec | 44.99 ± 1.05 × 10-6 cm/sec | 0.09 |  |  | 47.63± 5.44 × 10-6 cm/sec | 0.02 | 0.02 |  |  |  |  |  | 
6 | CC(C)NCC(O)COc1cccc2ccccc12 (centres unmarked) [Propranolol] | 71.42± 5.08 × 10-6 cm/sec | 86.05 ± 21.67 × 10-6 cm/sec | 0.03 |  |  | 101.68± 23.00 × 10-6 cm/sec | 0.03 | 0.02 |  |  |  |  |  | 
7 | C=C[C@H]1C[N@@]2CC[C@H]1C[C@@H]2[C@@H](O)c1ccnc2ccc(OC)cc12 [Quinidine] |  |  |  |  |  |  |  |  |  |  |  | Transcellular |  | 
8 | CNC(=C[N+](=O)[O-])NCCSCc1ccc(CN(C)C)o1 [Rantidine] | 1.80± 0.27 × 10^-6 cm/sec | 2.29 ± 0.27 × 10^-6 cm/sec | 0.01 |  |  | 3.22± 0.93 × 10^-6 cm/sec | 0.02 | 0.02 | 50 |  |  | Paracellular |  | 
9 | O=C([O-])CCCCCCCNC(=O)c1ccccc1O.[Na+] [SNAC, salcaprozate sodium] |  |  |  |  |  |  |  |  |  |  |  |  | partial removal of cell layer | irreversible damage to the cell layer
10 | CC(C)(C)NCC(O)c1cc(O)cc(O)c1 (centres unmarked) [Terbutaline] | 7.11± 0.43 × 10-6 cm/sec | 5.09 ± 0.06 × 10-6 cm/sec | 0.01 | Paracellular | 44 | 1.85± 0.10 × 10-6 cm/sec | 0.02 | 0.02 |  |  |  |  |  | 
11 | CC(=O)CC(c1ccccc1)c1c(O)c2ccccc2oc1=O (centres unmarked) [Warfarin] | 160.97± 40.49 × 10-6 cm/sec | 0.00030039 cm/s |  |  |  | 0.00024341 cm/s |  | 0.02 |  |  |  |  |  | 
